Data from ChEMBL document CHEMBL5724914, “Linking interpersonal differences in gut microbiota composition and drug biotransformation activity” (2024).

Tests used:
[1] = (§1) The drug is tested on Z-030 corresponding to mouse gut metagenome with ENA study accession number: PRJEB37062 and ENA sample accession number: ERS12561829 for biotransformation under anaerobic condition. The drug concentrations were measured over 9 timepoints collected between 0 and 24 hours of incubation by liquid-chromatography-coupled mass spectrometry (LC–MS); settings: 2 µM
[2] = as §1, with “Z-008” for “Z-030”, “to” for “to mouse gut”, “ERS12561808” for “ERS12561829”; settings: 2 µM
[3] = as §1, with “WLS-098” for “Z-030”, “human” for “mouse”, “ERS12561754” for “ERS12561829”; settings: 2 µM
[4] = as §1, with “Z-009” for “Z-030”, “pig” for “mouse”, “ERS12561809” for “ERS12561829”; settings: 2 µM
[5] = as §1, with “Z-007” for “Z-030”, “rat” for “mouse”, “ERS12561807” for “ERS12561829”; settings: 2 µM
[6] = as §1, with “WLS-082” for “Z-030”, “human” for “mouse”, “ERS12561751” for “ERS12561829”; settings: 2 µM
[7] = human gut metagenome, 24 h, 2 µM
[8] = as §1, with “Z-027” for “Z-030”, “to” for “to mouse gut”, “ERS12561826” for “ERS12561829”; settings: 2 µM
[9] = as §1, with “Z-003” for “Z-030”, “pig” for “mouse”, “ERS12561803” for “ERS12561829”; settings: 2 µM
[10] = as §1, with “Z-018” for “Z-030”, “pig” for “mouse”, “ERS12561817” for “ERS12561829”; settings: 2 µM
[11] = human gut metagenome, 24 h, 2 µM; remark: listed apart in the source
[12] = as §1, with “WLS-370” for “Z-030”, “human” for “mouse”, “ERS12561793” for “ERS12561829”; settings: 2 µM
[13] = as §1, with “Z-014” for “Z-030”, “rat” for “mouse”, “ERS12561814” for “ERS12561829”; settings: 2 µM
[14] = human gut metagenome, 24 h, 2 µM; remark: listed apart in the source
[15] = as §1, with “WLS-073” for “Z-030”, “human” for “mouse”, “ERS12561749” for “ERS12561829”; settings: 2 µM
[16] = human gut metagenome, 24 h, 2 µM; remark: listed apart in the source
[17] = as §1, with “WLS-069” for “Z-030”, “human” for “mouse”, “ERS12561748” for “ERS12561829”; settings: 2 µM
[18] = as §1, with “Z-001” for “Z-030”, “ERS12561801” for “ERS12561829”; settings: 2 µM
[19] = human gut metagenome, 24 h, 2 µM; remark: listed apart in the source
[20] = as §1, with “Z-029” for “Z-030”, “rat” for “mouse”, “ERS12561828” for “ERS12561829”; settings: 2 µM
Also: call rule not given here.

| SMILES | Bacterial Biotransformation [1] | Bacterial Biotransformation [2] | Bacterial Biotransformation [3] | Bacterial Biotransformation [4] | Bacterial Biotransformation [5] | Bacterial Biotransformation [6] | Bacterial Biotransformation [7] | Bacterial Biotransformation [8] | Bacterial Biotransformation [9] | Bacterial Biotransformation [10] | Bacterial Biotransformation [11] | Bacterial Biotransformation [12] | Bacterial Biotransformation [13] | Bacterial Biotransformation [14] | Bacterial Biotransformation [15] | Bacterial Biotransformation [16] | Bacterial Biotransformation [17] | Bacterial Biotransformation [18] | Bacterial Biotransformation [19] | Bacterial Biotransformation [20] |
| --- | --- | --- | --- | --- | --- | --- | --- | --- | --- | --- | --- | --- | --- | --- | --- | --- | --- | --- | --- | --- |
| CC(C)(C)NC(=O)[C@H]1CC[C@H]2[C@@H]3CC[C@H]4NC(=O)C=C[C@]4(C)[C@H]3CC[C@]12C [FINASTERIDE] | Compound NOT metabolized | Compound NOT metabolized | Compound metabolized | Compound metabolized | Compound NOT metabolized | Compound metabolized | Compound metabolized | Compound metabolized | Compound metabolized | Compound metabolized | Compound metabolized | Compound metabolized | Compound NOT metabolized | Compound metabolized | Compound metabolized | Compound metabolized | Compound metabolized | Compound NOT metabolized | Compound metabolized | Compound NOT metabolized |
| CCN(C)C(=O)Oc1cccc([C@H](C)N(C)C)c1.O=C(O)C(O)C(O)C(=O)O [RIVASTIGMINE TARTRATE] | Compound NOT metabolized | Compound NOT metabolized | Compound NOT metabolized | Compound NOT metabolized | Compound NOT metabolized | Compound NOT metabolized | Compound NOT metabolized | Compound NOT metabolized | Compound NOT metabolized | Compound NOT metabolized | Compound NOT metabolized | Compound NOT metabolized | Compound NOT metabolized | Compound NOT metabolized | Compound NOT metabolized | Compound metabolized | Compound NOT metabolized | Compound NOT metabolized | Compound NOT metabolized | Compound NOT metabolized |
| Br.CN1CCC[C@@H]1Cc1c[nH]c2ccc(CCS(=O)(=O)c3ccccc3)cc12 [ELETRIPTAN HYDROBROMIDE] | Compound NOT metabolized | Compound NOT metabolized | Compound metabolized | Compound NOT metabolized | Compound NOT metabolized | Compound NOT metabolized | Compound NOT metabolized | Compound NOT metabolized | Compound NOT metabolized | Compound NOT metabolized | Compound metabolized | Compound NOT metabolized | Compound NOT metabolized | Compound metabolized | Compound metabolized | Compound metabolized | Compound metabolized | Compound NOT metabolized | Compound NOT metabolized | Compound NOT metabolized |
| CCN(CC)CCNC(=O)c1cc(S(C)(=O)=O)ccc1OC [TIAPRIDE] | Compound NOT metabolized | Compound NOT metabolized | Compound metabolized | Compound NOT metabolized | Compound NOT metabolized | Compound NOT metabolized | Compound NOT metabolized | Compound NOT metabolized | Compound metabolized | Compound NOT metabolized | Compound NOT metabolized | Compound NOT metabolized | Compound NOT metabolized | Compound metabolized | Compound NOT metabolized | Compound metabolized | Compound NOT metabolized | Compound metabolized | Compound metabolized | Compound NOT metabolized |
| COc1cc(C(=O)NCc2ccc(OCCN(C)C)cc2)cc(OC)c1OC [TRIMETHOBENZAMIDE] | Compound NOT metabolized | Compound NOT metabolized | Compound NOT metabolized | Compound metabolized | Compound NOT metabolized | Compound NOT metabolized | Compound NOT metabolized | Compound NOT metabolized | Compound NOT metabolized | Compound NOT metabolized | Compound NOT metabolized | Compound NOT metabolized | Compound NOT metabolized | Compound NOT metabolized | Compound NOT metabolized | Compound NOT metabolized | Compound NOT metabolized | Compound NOT metabolized | Compound NOT metabolized | Compound NOT metabolized |
| COc1ccc([C@@H]2Sc3ccccc3N(CCN(C)C)C(=O)[C@@H]2OC(C)=O)cc1 [DILTIAZEM] | Compound NOT metabolized | Compound NOT metabolized | Compound metabolized | Compound metabolized | Compound NOT metabolized | Compound metabolized | Compound metabolized | Compound NOT metabolized | Compound metabolized | Compound metabolized | Compound metabolized | Compound metabolized | Compound NOT metabolized | Compound metabolized | Compound metabolized | Compound metabolized | Compound metabolized | Compound metabolized | Compound metabolized | Compound NOT metabolized |
| Nc1nc(NC2CC2)c2ncn([C@H]3C=C[C@@H](CO)C3)c2n1.Nc1nc(NC2CC2)c2ncn([C@H]3C=C[C@@H](CO)C3)c2n1.O=S(=O)(O)O [ABACAVIR SULFATE] | Compound NOT metabolized | Compound NOT metabolized | Compound metabolized | Compound NOT metabolized | Compound NOT metabolized | Compound NOT metabolized | Compound NOT metabolized | Compound NOT metabolized | Compound NOT metabolized | Compound NOT metabolized | Compound metabolized | Compound NOT metabolized | Compound NOT metabolized | Compound metabolized | Compound metabolized | Compound metabolized | Compound metabolized | Compound NOT metabolized | Compound metabolized | Compound NOT metabolized |
| CC1Cc2ccccc2N1NC(=O)c1ccc(Cl)c(S(N)(=O)=O)c1 (stereo not given) [INDAPAMIDE] | Compound NOT metabolized | Compound NOT metabolized | Compound NOT metabolized | Compound NOT metabolized | Compound NOT metabolized | Compound NOT metabolized | Compound NOT metabolized | Compound NOT metabolized | Compound NOT metabolized | Compound NOT metabolized | Compound NOT metabolized | Compound NOT metabolized | Compound NOT metabolized | Compound NOT metabolized | Compound NOT metabolized | Compound NOT metabolized | Compound NOT metabolized | Compound NOT metabolized | Compound NOT metabolized | Compound NOT metabolized |
